Each molecule was assayed against T1, olfactomedin domain of human myocilin (myoc-OLF) (Homo sapiens, UniProt Q99972) (assay: Thermal shift assay by differential scanning fluorimetry). Conditions: not given.
T1 sequence (Q99972 244-503 limits assumed): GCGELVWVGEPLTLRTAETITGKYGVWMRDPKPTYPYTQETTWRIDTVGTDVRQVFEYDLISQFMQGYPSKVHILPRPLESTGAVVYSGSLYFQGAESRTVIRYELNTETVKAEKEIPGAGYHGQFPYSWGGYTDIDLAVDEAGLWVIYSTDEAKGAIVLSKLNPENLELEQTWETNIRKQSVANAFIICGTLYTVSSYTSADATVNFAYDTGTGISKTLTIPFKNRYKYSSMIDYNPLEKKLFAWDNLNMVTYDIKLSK
Type: binding

| SMILES | Kd [µM] |
| --- | --- |
| Cc1cc(N(CCCl)CCCl)ccc1/C=N/NC(=O)Cc1cc(=O)oc2cc(O)ccc12 [NSC79688] | 2 |

Same assay, conditions: initial round of screening; DSF, 5 μM protein; protein alone Tm 49.83

| SMILES | Tm [°C] |
| --- | --- |
| CN(C)c1ccc(/C=C/C(=O)c2cc(Cl)ccc2O)cc1 [NSC11437] | 51.33 |
| COc1cc(C(=O)C(=O)c2ccc(O)c(OC)c2)ccc1O [NSC16722] | 50.74 |
| O=C(/C=C/c1ccc(O)c(O)c1)c1ccccc1O [NSC37433] | 66.27 |
| Cc1cc(N(CCCl)CCCl)ccc1/C=N/NC(=O)Cc1cc(=O)oc2cc(O)ccc12 [NSC79688] | 51.43 |
| O=C(Cn1ccc(=O)[nH]c1=O)Nc1ccc(C(=O)O)c(O)c1 [NSC93033] | 51.49 |
| Nc1nc(N)c(/N=N/c2ccc(C(=O)O)cc2)c(N)n1 [NSC408734] | 51.61 |
| O=C1c2ccccc2C(=O)C1C(c1ccc([N+](=O)[O-])cc1)C1C(=O)c2ccccc2C1=O [NSC643148] | 51.85 |

Same assay, conditions: second round best hit vs NSC37433

| SMILES | increase in the affinity compared to the best hit from the initial round (NSC37433) |
| --- | --- |
| COc1cccc(NC(S)=Nc2ccc(O)cc2)c1 [NSC201634] | ~ 10,000 fold |

Same assay, conditions: second round of screening, seeded with NSC37433

| SMILES | Tm [°C] |
| --- | --- |
| Cc1ccc(C(C)C)cc1NC(=O)Nc1ccc([N+](=O)[O-])cc1 [NSC46492] | 57.96 |
| O=C(Nc1ccc(Oc2ccc(NC(=O)Nc3ccc([N+](=O)[O-])cc3)cc2)cc1)Nc1ccc([N+](=O)[O-])cc1 [NSC80735] | 62.86 |
| COc1cccc(NC(S)=Nc2ccc(O)cc2)c1 [NSC201634] | 83.79 |

From publication PMC5568477 (Bioorganic & medicinal chemistry letters, 2017)
